Source: US20240262835A1, “PRMT5 INHIBITING COMPOUNDS AND USES THEREOF” (ANTENGENE DISCOVERY LIMITED, priority 2023, published 2024)

Assays:
[1] = tested on: HCT116 homozygous MTAP knockout cells; experiment: HCT116 cell proliferation assay (CTG), MTAP knockout cells; format: cell-based, human; settings: Cell Titer-Glo
Description: (§1) Control samples were analyzed in parallel.
(§2) On Day 0, 150 HCT116 parental or HCT116 homozygous MTAP knockout cells were seeded in 96-well plates in McCoy's 5A medium containing 10% fetal bovine serum and pen/strep. And the cells were incubated overnight at 37° C. and 5% CO2.
(§3) On Day 1, cells were treated with 9-point serial dilution of compound, using a top concentration of 50 μM, 1:5 serial dilution steps and, a DMSO-only control. And cells were incubated for 6 days.
(§4) On Day 7, cell viability was measured using a CTG assay Kit (Cell Titer-Glo; Promega, catalog no.: G7573) in accordance with the manufacturer's instructions. Assays plates were read on a EnVision™ Multilabel Reader using the Ultra-Sensitive luminescence model. The data were analyzed by GraphPad Prism 5.0 software, and the dose-effect curve was obtained by fitting the data using nonlinear S-curve regression, from which the IC50 value was calculated.

PRMT5/MEP50 = PRMT5/MEP50 (Homo sapiens (Human), UniProt O14744); experiment: MTase-Glo methyl transferase assay (PRMT5 inhibition); format: biochemical; settings: 50 nM PRMT5/MEP50, 25 μM SAM, 5 μM Histone H4 peptide (1-21), read-out: IC50 for PRMT5 inhibiting
PRMT5/MEP50, sequence (O14744 whole entry): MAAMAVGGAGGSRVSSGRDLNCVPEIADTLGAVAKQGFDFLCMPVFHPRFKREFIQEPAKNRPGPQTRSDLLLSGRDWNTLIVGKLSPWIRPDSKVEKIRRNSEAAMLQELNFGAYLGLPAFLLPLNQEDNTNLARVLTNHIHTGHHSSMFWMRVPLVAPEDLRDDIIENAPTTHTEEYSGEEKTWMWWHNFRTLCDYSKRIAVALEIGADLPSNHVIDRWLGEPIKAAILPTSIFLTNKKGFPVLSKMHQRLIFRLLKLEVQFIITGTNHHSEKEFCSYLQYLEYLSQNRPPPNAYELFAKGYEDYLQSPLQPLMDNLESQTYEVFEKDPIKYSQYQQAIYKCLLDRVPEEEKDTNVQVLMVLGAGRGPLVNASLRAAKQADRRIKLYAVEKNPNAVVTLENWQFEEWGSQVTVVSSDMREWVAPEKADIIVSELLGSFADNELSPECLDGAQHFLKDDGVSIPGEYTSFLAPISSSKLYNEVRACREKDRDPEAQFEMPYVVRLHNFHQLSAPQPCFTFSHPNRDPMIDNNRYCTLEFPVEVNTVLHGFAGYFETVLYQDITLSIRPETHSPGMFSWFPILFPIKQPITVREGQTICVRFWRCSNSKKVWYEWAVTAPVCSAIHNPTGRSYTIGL
PRMT5/MEP50, sequence (Q9BQA1 whole entry partner): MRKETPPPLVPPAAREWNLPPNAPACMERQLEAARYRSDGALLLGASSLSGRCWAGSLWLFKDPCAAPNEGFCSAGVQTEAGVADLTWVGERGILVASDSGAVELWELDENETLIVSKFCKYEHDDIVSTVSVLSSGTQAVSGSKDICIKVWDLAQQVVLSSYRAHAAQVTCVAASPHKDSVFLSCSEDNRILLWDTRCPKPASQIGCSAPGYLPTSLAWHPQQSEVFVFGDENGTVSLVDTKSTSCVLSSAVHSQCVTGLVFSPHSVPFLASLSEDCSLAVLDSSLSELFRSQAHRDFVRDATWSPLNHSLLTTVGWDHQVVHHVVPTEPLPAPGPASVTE
Description: The PRMT5 inhibitory activity of test compounds was determined using the MTase-Glo™ assay (Promega), which monitors the product (S-adenosyl homocysteine or SAH) of methyltransferase reactions. The PRMT5 MTase-Glo assays were conducted in a 384-well white ProxiPlate (PerkinElmer, catalog no.: 6008280) in a total volume of 12 μL. The PRMT5 enzymatic reaction (in 4 μL) contained 50 nM PRMT5/MEP50 (Reaction Biology Corp, catalog no.: HMT-22-148), 25 μM S-adenosyl methionine (SAM, Promega), 5 μM Histone H4 peptide (1-21) (BPS Bioscience, catalog no.: 52018-2) and five-fold serially diluted compounds in a reaction buffer of 50 mM Tris (pH 8.0), 50 mM NaCl, 0.01% Tween 20, 0.01% BSA, and 1 mM DTT. The test compounds were pre-incubated with PRMT5/MEP50 and Histone H4 peptide for 20 minutes at room temperature before the addition of SAM to initiate the PRMT5 reaction. The reaction was allowed to proceed for 1 hour at 37° C. and was terminated by 2 μL of 3× MTase-Glo™ Reagent (Promega) and 150 μM EPZ015666 (Selleck, catalog no.: 1616391-65-1). After a 30-minute incubation at room temperature, 6 μL of MTase-Glo™ Detection Solution (Promega) was added and the plate was incubated at room temperature for an additional 30 minutes. The light signal corresponding to the amount of SAH produced by the PRMT5 reaction was subsequently measured using an Envision multimode reader (PerkinElmer). IC50 and Ki values were obtained by analyzing dose-response curves using GraphPad Prism.

[2] = cynomolgus monkey, microsomes
[3] = tested on: HCT116 parental (wild type) cells; experiment: HCT116 cell proliferation assay (CTG), parental cells; format: cell-based, human; settings: Cell Titer-Glo
Description: as §1, §2, §3, §4

[4] = dog, microsomes
[5] = In vivo pharmacokinetics assay in mice via IV and PO; set-up: species or system ICR mice
Description: Pharmacokinetics assay for test compounds was performed in mice via IV and PO.
Test compound solution was prepared on the day of administration.
Solvent: IV+PO: 5% DMSO+10% Soultol+85% H2O or saline
Species: ICR mice; SPF level.
Source: Beijing Vital River Laboratory Animal Technology Co., Ltd.
Animal selection: Males. No random grouping
Weighed before dosing, calculated dosage according to body weight. For Groups 1-3, the drug was administered intravenously or intragastrically. For Group 4, the drug administered intragastrically.
For Groups 1-3, at 0.083 h, 0.25 h, 0.5 h, 1 h, 2 h, 4 h, 6 h, 8 h, 24 h, after administration. For Group 4, at 2 h and 4 h after administration.
Blood was collected through the cheeks. For each sample, about 0.05 mL of blood was collected and was added heparin sodium or EDTA-2K as anticoagulant, and was placed on wet ice.
The blood samples were collected and placed on ice and was centrifuged within 1 hour (centrifugation: 6000 g, 3 minutes, 2-8° C.) to separate plasma. Plasma samples were stored in a −80° C. refrigerator prior to analysis.
The pharmacokinetic parameters were calculated using Phoenix WinNonlin8.2.0 based on the blood concentration data at different time points, and AUC0-t, AUC0-∞, MRT0-∞, Cmax, Tmax, and T1/2 and mean values and standard deviations thereof were provided.

[6] = human, microsomes
[7] = rat, microsomes
[8] = Liver microsome metabolic stability (LMS) assay, mouse; settings: mouse, liver microsomes
[9] = PO (Group 4 design: 30 mg/kg), 2 h
[10] = PO (Group 4 design: 30 mg/kg), 4 h
[11] = Homo sapiens, HCT-116, 6 days treatment

Which IC50 ([1]; 6 days treatment) does the source give for CN(C(=O)c1ccc2nc(N)c3cncn3c2c1)C1COc2cc(C(F)(F)F)ccc21 (stereo not shown) [Compound 17] here?
Its IC50 is 32 nM.

What about the IC50 (PRMT5/MEP50) of the same molecule?
Its IC50 is 12 nM.

And the “T1/2 of LMS, C” value [2]?
The value was 1.07 h.

What about the IC50 ([3]; 6 days treatment) of the same molecule?
The IC50 was 4080 nM.

What about the “T1/2 of LMS, D” value [4] of the same molecule?
The value was greater than 2.42 h.

What about the AUC0-t ([5]; IV 1.0 mg/kg) of the same molecule?
Its AUC0-t is 5219 ng·h/mL.

What about the Cl ([5]; IV 1.0 mg/kg) of the same molecule?
Its Cl is 3.10 mL/min/kg.

What about the T1/2 ([5]; IV 1.0 mg/kg) of the same molecule?
The T1/2 was 5.05 h.

What about the Cmax ([5]; IV 1.0 mg/kg, plasma) of the same molecule?
Its Cmax is 965 ng/mL.

And the AUC0-t ([5]; PO 10 mg/kg)?
Its AUC0-t is 50800 ng·h/mL.

What about the T1/2 ([5]; PO 10 mg/kg) of the same molecule?
Its T1/2 is 5.07 h.

What about the C8 h ([5]; PO 10 mg/kg, plasma) of the same molecule?
Its C8 h is 2287 ng/mL.

And the C24 h ([5]; PO 10 mg/kg, plasma)?
Its C24 h is 257 ng/mL.

And the Cmax ([5]; PO 10 mg/kg, plasma)?
Its Cmax is 4627 ng/mL.

What about the AUC0-t ([5]; PO 30 mg/kg) of the same molecule?
Its AUC0-t is 174589 ng·h/mL.

And the T1/2 ([5]; PO 30 mg/kg)?
The T1/2 was 4.87 h.

And the C8 h ([5]; PO 30 mg/kg, plasma)?
Its C8 h is 8260 ng/mL.

What about the C24 h ([5]; PO 30 mg/kg, plasma) of the same molecule?
Its C24 h is 860 ng/mL.

And the Cmax ([5]; PO 30 mg/kg, plasma)?
The Cmax was 16233 ng/mL.

And the “Mean Concentration In brain” value [5, 9]?
The value was 3308 ± 1056 ng/g.

And the “Mean Concentration In plasma” value [5, 9]?
The value was 14843 ± 4945 ng/mL.

What about the “Mean Concentration In brain” value [5, 10] of the same molecule?
The value was 2668 ± 224 ng/g.

And the “Mean Concentration In plasma” value [5, 10]?
The value was 13667 ± 1365 ng/mL.

And the B/P ratio ([5]; PO (Group 4 design: 30 mg/kg), brain to plasma, one value for 2 h and 4 h)?
The B/P ratio was 21%.

What about the “T1/2 of LMS, H” value [6] of the same molecule?
The value was greater than 2.42 h.

What about the “T1/2 of LMS, R” value [7] of the same molecule?
The value was greater than 2.42 h.

Which IC50 [1, 11] does the source give for CN(C(=O)c1ccc2nc(N)c3cncn3c2c1)[C@@H]1COc2cc(C(F)(F)F)ccc21 [Compound 12] here?
The IC50 was 43 nM.

What about the IC50 (PRMT5/MEP50) of the same molecule?
The IC50 was 26 nM.

What about the IC50 [3, 11] of the same molecule?
The IC50 was 5160 nM.

And the half-life at 1 μM [8]?
The half-life at 1 μM was 1.14 h.

What about the clearance ([5]; male, ICR, mouse, plasma, IV 1.0 mg/kg) of the same molecule?
The clearance was 3.48 mL/min/kg.
